Tested on: mitochondria prepared from the livers of male Sprague Dawley rats
Experiment: in vitro mitochondrial swelling assay (light scattering at 540 nm)
Format: biochemical, rat
Details: for swelling response of non-peroxide stressed (control) mitochondria: normal, unstressed mitochondria, test article 100 μM, time course over 17 minutes, FIG. 1
Description: To evaluate the effects of sulfite salts on carboxylic acid NSAID-induced mitochondrial swelling, the following assay was used. […] An initial low speed centrifugation (600×g for 10 minutes) was conducted to remove nuclei and cell debris. The pellet was discarded and the supernatant was centrifuged at 7,740×g for 10 minutes to obtain a crude mitochondrial pellet. […] The suspension was centrifuged at 7,740×g for 10 minutes. The mitochondrial pellet was suspended in 30 mL of ice-cold wash buffer and centrifuged at 10,100×g for 10 minutes. […] The mitochondrial suspension was placed on ice for immediate assay. An aliquot of the mitochondrial preparation was added to a 5.0 mL cuvette (1.0 cm path length) that contained 2.95 mL of iso-osmotic HEPES buffer, supplemented with sodium succinate and rotenone. An appropriate aliquote of the mitochondrial suspension was added to the cuvette and swelling was monitored by light scattering at 540 nm for a period of 17 minutes. When drug effects were examined, mitochondria were initially exposed for a period of one minute to the test article before the addition of either buffer, t-BOOH (150 μM) or sodium sulfite (300 μM).

## Nc1c(CC(=O)O)cccc1C(=O)c1ccccc1 [amfenac]
  swelling response of non-peroxide stressed (control) mitochondria: do not affect swelling

## Nc1c(CC(=O)O)cccc1C(=O)c1ccc(Br)cc1 [bromfenac]
  swelling response of non-peroxide stressed (control) mitochondria: do not affect swelling

## O=C(O)Cc1ccccc1Nc1c(Cl)cccc1Cl [diclofenac]
  swelling response of non-peroxide stressed (control) mitochondria: do not affect swelling
t-BOOH 150 μM, diclofenac 30, 100 or 300 μM, FIG. 2
  swelling response of t-BOOH-stressed mitochondria: promote the swelling of mitochondria

## CC(C)Cc1ccc(C(C)C(=O)O)cc1 (stereo not drawn) [ibuprofen]
  swelling response of non-peroxide stressed (control) mitochondria: do not affect swelling

## O=S([O-])[O-].[Na+].[Na+] [sodium sulfite]
t-BOOH 150 μM, sodium sulfite 300 μM with 60 μM amfenac or 60 μM bromfenac, FIG. 3
  effect of sulfite salt on NSAID-induced swelling of peroxide-stressed mitochondria: mitochondrial swelling is prevented
